Measurements published in patent publication US20230265524A1, “IMMUNOGENIC RETROELEMENTS AND THEIR USE IN CANCER THERAPY” (UNIVERSITY HEALTH NETWORK, priority 2020, published 2023).

How the values were obtained:
[1] = system: interferon stimulated genes (ISG15, DDX58 and IRF7); test: interferon response / ISG expression by RNA-seq GSEA and qRT-PCR in patient-derived CRC cells; type: cell-based, human; conditions: transfection in wild-type and ADAR1-depleted cells, across time-points
Source text: H, Geneset Enrichment Analysis showing an enrichment of the geneset ‘Hallmark_Interferon_Alpha_Response’ in ADAR1^KD 5-AZA-treated cells compared to ADAR1^WT 5-AZA-CdR treated cells.
I, Interferon-responsive geneset enrichment score in mock-treated ADAR1^WT, 5-AZA-CdR-treated ADAR1^WT, mock-treated ADAR1^KD, and 5-AZA-CdR-treated ADAR1^KD conditions. Samples were collected 5, 14, and 24 days post-treatment.
B, Kinetics of interferon stimulated genes (ISG15, DDX58 and IRF7) relative expression in ADAR1^WT (Black) and ADAR1^KD (Gray) patient-derived colorectal cancer cells (CRCs) treated with 5-AZA-CdR analyzed by qRT-PCR. Data are mean±s.e.m. (n=3 from three independent experiments). *P<0.05, **P<0.01, ****P<0.0001, Sidak-corrected two-way ANOVA.
C, Interferon-responsive gene expression in ADAR1^WT mock-treated (MT), 5-AZA-CdR treated, ADAR1^KD NT and ADAR1^KD p(I:C) transfected samples collected 5 days, 14 days and 24 days post-treatment, measured by RNA-seq.
D, Kinetics of interferon stimulated genes (ISG15, DDX58 and IRF7) relative expression in ADAR1^WT (Black) and ADAR1^KD (Gray) patient-derived CRCs transfected with p(I:C), analyzed by qRT-PCR. Data are mean±s.e.m. **P<0.01, ****P<0.0001, Sidak-corrected two-way ANOVA.
F, Interferon stimulated genes (ISG15, DDX58 and IRF7) relative expression in CTRL (LUC) (Black) and ADAR1^p150CE (Gray) patient-derived CRCs treated with 5-AZA-CdR, analyzed by qRT-PCR. Data are mean±s.e.m. **P<0.01, ***P<0.001, Sidak-corrected two-way ANOVA.
G, IFN enrichment score in CTRL(LUC) Mock-treated, 5-AZA-CdR treated, ADAR1-p150 overexpressing NT and ADAR1-p150 overexpressing 5-AZA-CdR treated samples collected 5 days post-treatment and measured by RNA-seq.
Based on these findings, we hypothesized that ADAR1 depletion would synergize with the viral mimicry response induced by DNMTi treatment. To assess how ADAR1 depletion affects 5-AZA-CdR treated samples, we performed RNA-seq analyses in patient-derived CRC cells. […] As a molecular read-out of dsRNA pattern recognition activation, we measured MAVS aggregation in the mitochondrial fraction of cell lysates^34. […] Taken together, our findings establish that ADAR1 acts as a negative feedback loop, restricting the viral mimicry response induced by DNMTi treatment in cancer cells.

[2] = system: ADAR1; test: qPCR analysis of ADAR1 mRNA level and isoforms; type: cell-based, human; conditions: CRC cells transiently transfected, 100 ng/ml
Description: C, qPCR analysis of total ADAR1 mRNA level after treatment with 5-AZA-CdR (300 nM, for 5 days) or transfection with 100 ng ml-1 poly(I:C) over a course of 24 days. Cells were washed out at day 5 and seeded in drug-free medium. Data are mean±s.e.m.****P<0.0001, Sidak-corrected two-way ANOVA.
A, ADAR1 isoforms (p110 and p150) relative expression analysed by qPCR. LACZ denotes ADAR1WT; PIC denotes 100 ng/ml poly (I:C) for 5 days; AZA denotes 300 nM 5-AZA-CdR for 5 days). Data are mean±s.e.m. (n=3 from three independent experiments). ***P<0.001, ****P<0.0001, Tukey-corrected two-way ANOVA.
To test this hypothesis, we first determined if ADAR1 depletion affects dsRNA formation by IR-Alus in untreated patient-derived CRCs. We generated ADAR1 knock-down CRCs using two different hairpin RNAs (ADAR1^KDA/B) and confirmed depletion of both the constitutively expressed (p110) and interferon-inducible (p150) ADAR1 isoforms (FIG. 8A). […] To determine if MDA5 ligands also increase upon ADAR1 depletion, we performed the MDA5 protection assay followed by RNA-Seq, as above. […] Again, these immunogenic Alus were primarily IR-Alu pairs unidirectionally transcribed in either the sense (+/+) or antisense (−/−) direction and induced upon ADAR1 depletion (FIG. 9C-J).
Next, we tested whether epigenetic therapy can induce and activate ADAR1 editing activity.

Poly(I:C) was tested, and the “activation of ISGs” value [1] was “comparable activation of ISGs across time-points” and the “interferon-inducible isoform of ADAR1 (p150) expression” value [2] was “acute up-regulation”.
